US12139520B2 (priority 2020, dated 2024)
Numbered stars: 1 amine (or outer) side, 2 acyl side, 3 side chain; on linkers, the order of the positions; unused ones are H or OH. Bridge positions count the residues as written; N and C are the ends. Square brackets hold non-standard residues; d marks the D form. Side chains are listed from the residue outwards. Peptide text beside a SMILES is read from it. * marks the point of attachment. C20 diacid = O=C(O)CCCCCCCCCCCCCCCCCCC(=O)*; γGlu = O=C(O)[C@H](CCC(=O)[*:2])N[*:1]; Hyp = O=C(O)[C@@H]1C[C@@H](O)CN1; AEEA = NCCOCCOCC(=O)O

Columns and labels:
[1] = target: hAM1 receptor (Homo sapiens, UniProt O60895+Q16602); assay: cAMP assay for in vitro receptor activation, hAM1-R; assay type: cell-based; conditions: cAMP assay, hAM1 receptor; read-out: hAM1R EC50
Method in brief: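 A subcloned monoclonal line stably expressing hAM1 receptor is thawed and plated at 8000 cells/well. The assay buffer is DPBS with 0.05% casein and 0.5 mM IBMX, and receptor activation is followed by cAMP levels.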

[2] = target: T1, hAMY3 receptor (Homo sapiens, UniProt O60896+P30988); assay: cAMP assay for in vitro receptor activation, hAMY3-R; assay type: cell-based; conditions: cAMP assay, hAMY3 receptor; read-out: hAMY3R EC50
T1 sequence (P30988 25-474): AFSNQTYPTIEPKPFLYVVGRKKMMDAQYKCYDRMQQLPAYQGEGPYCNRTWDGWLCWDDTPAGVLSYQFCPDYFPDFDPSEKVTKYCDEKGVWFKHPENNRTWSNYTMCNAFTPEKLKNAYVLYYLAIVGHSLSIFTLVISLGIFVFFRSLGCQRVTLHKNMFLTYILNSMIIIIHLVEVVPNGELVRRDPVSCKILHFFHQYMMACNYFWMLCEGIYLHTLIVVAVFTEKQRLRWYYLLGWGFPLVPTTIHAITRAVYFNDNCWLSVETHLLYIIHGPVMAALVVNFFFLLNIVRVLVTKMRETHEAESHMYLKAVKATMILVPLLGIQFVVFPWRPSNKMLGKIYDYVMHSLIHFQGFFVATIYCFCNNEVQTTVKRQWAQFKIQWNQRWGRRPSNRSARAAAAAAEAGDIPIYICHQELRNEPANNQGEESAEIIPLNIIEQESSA
T1 sequence (O60896 24-148 partner): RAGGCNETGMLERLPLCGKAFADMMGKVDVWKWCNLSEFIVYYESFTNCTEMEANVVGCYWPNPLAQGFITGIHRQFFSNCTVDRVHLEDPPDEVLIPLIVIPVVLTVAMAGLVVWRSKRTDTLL
Method in brief: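 Stable hAMY3 cells; DPBS + 0.05% casein + 0.5 mM IBMX; graded compound doses, 30 min, RT; cAMP via HTRF Gs kit, TR-FRET read at 1 h.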

Sequence of hAM1 receptor (Q16602 23-461): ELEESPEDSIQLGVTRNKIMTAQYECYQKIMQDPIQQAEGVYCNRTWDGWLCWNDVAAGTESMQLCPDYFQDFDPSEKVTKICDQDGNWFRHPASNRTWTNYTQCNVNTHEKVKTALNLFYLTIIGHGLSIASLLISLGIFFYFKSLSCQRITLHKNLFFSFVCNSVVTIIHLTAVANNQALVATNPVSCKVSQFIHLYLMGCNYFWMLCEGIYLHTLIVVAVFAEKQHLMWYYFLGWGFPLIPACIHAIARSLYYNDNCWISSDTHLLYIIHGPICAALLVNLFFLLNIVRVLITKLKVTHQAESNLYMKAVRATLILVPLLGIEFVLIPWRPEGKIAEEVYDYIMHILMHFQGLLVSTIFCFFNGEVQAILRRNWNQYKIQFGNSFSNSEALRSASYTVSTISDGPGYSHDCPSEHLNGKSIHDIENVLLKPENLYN
Sequence of hAM1 receptor (O60895 43-175 partner): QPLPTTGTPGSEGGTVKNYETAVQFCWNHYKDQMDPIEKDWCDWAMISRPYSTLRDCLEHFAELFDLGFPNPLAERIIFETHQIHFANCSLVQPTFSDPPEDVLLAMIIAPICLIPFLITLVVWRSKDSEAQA

| Structure (SMILES) | EC50 [1] | EC50 [2] |
| --- | --- | --- |
| CC[C@H](C)[C@H](NC(=O)[C@H](CCC(N)=O)NC(=O)[C@H](CCC(=O)O)NC(=O)[C@H](C)NC(=O)[C@H](CC(C)C)NC(=O)[C@H](CCCNC(=N)N)NC(=O)[C@H](CCC(N)=O)NC(=O)[C@@H](NC(=O)[C@@H](NC(=O)[C@@H]1CSSC[C@H](NC(=O)[C@@H](N)CCCCN)C(=O)N[C@@H](CC(N)=O)C(=O)N[C@@H]([C@@H](C)O)C(=O)N[C@@H](C)C(=O)N[C@@H]([C@@H](C)O)C(=O)N1)[C@@H](C)O)C(C)C)C(=O)N[C@@H](Cc1ccc(O)cc1)C(=O)N[C@@H](CCC(N)=O)C(=O)N[C@@H](Cc1ccccc1)C(=O)N[C@H](C(=O)N[C@@H](CC(=O)O)C(=O)N[C@@H](CCCCN)C(=O)N[C@@H](CC(=O)O)C(=O)N[C@@H](CCCCN)C(=O)N[C@@H](CC(=O)O)C(=O)N[C@@H](CC(N)=O)C(=O)N[C@@H](CCCCNC(=O)COCCOCCNC(=O)COCCOCCNC(=O)CC[C@H](NC(=O)CCCCCCCCCCCCCCCCCCC(=O)O)C(=O)O)C(=O)N[C@@H](C)C(=O)N1CCC[C@H]1C(=O)N1CCC[C@H]1C(=O)N[C@H](C(=O)N[C@@H](CC(N)=O)C(=O)N[C@H](C(=O)NCC(=O)N[C@@H](CO)C(=O)N[C@@H](CC(N)=O)C(=O)NCC(=O)N1C[C@H](O)C[C@H]1C(N)=O)C(C)C)[C@@H](C)O)[C@@H](C)O [compound 12] (H-KCNTATCTVQRLAEQIYQFTDKDKDNK([AEEA-AEEA-γGlu-C20 diacid])APPTNVGSNG[Hyp]-NH2; disulfide 2-7; N-terminus assumed) | > 5000 nM | 0.007 nM |
| CC[C@H](C)[C@H](NC(=O)[C@H](CCC(N)=O)NC(=O)[C@H](CCC(=O)O)NC(=O)[C@H](C)NC(=O)[C@H](CC(C)C)NC(=O)[C@H](CCCNC(=N)N)NC(=O)[C@H](CCC(N)=O)NC(=O)[C@@H](NC(=O)[C@@H](NC(=O)[C@@H]1CSSC[C@H](NC(=O)[C@H](CCCCN)NC(=O)CC[C@H](NC(=O)CCCCCCCCCCCCCCCCCCC(=O)O)C(=O)O)C(=O)N[C@@H](CC(N)=O)C(=O)N[C@@H]([C@@H](C)O)C(=O)N[C@@H](C)C(=O)N[C@@H]([C@@H](C)O)C(=O)N1)[C@@H](C)O)C(C)C)C(=O)N[C@@H](C)C(=O)N[C@@H](CCC(N)=O)C(=O)N[C@@H](Cc1ccccc1)C(=O)N[C@H](C(=O)N[C@@H](CC(=O)O)C(=O)N[C@@H](CCCCN)C(=O)N[C@@H](CC(=O)O)C(=O)N[C@@H](CCCCN)C(=O)N[C@@H](CC(=O)O)C(=O)N1CCC[C@H]1C(=O)N[C@H](C(=O)N[C@@H](C)C(=O)N1CCC[C@H]1C(=O)N1CCC[C@H]1C(=O)N[C@H](C(=O)N[C@@H](CC(N)=O)C(=O)N[C@H](C(=O)NCC(=O)N[C@@H](CO)C(=O)N[C@@H](CC(N)=O)C(=O)NCC(=O)N1C[C@H](O)C[C@H]1C(N)=O)C(C)C)[C@@H](C)O)C(C)C)[C@@H](C)O [compound 144] ({C20 diacid-γGlu}-KCNTATCTVQRLAEQIAQFTDKDKDPVAPPTNVGSNG[Hyp]-NH2; disulfide 2-7) | > 5000 nM | 0.038 nM |
| CC[C@H](C)[C@H](NC(=O)[C@H](CCC(N)=O)NC(=O)[C@H](Cc1c[nH]cn1)NC(=O)[C@H](C)NC(=O)[C@H](CC(C)C)NC(=O)[C@H](CCCNC(=N)N)NC(=O)[C@H](C)NC(=O)[C@@H](NC(=O)[C@@H](NC(=O)[C@@H]1CSSC[C@H](NC(=O)[C@H](CCCCN)NC(=O)CC[C@H](NC(=O)CCCCCCCCCCCCCCCCCCC(=O)O)C(=O)O)C(=O)N[C@@H](CC(N)=O)C(=O)N[C@@H]([C@@H](C)O)C(=O)N[C@@H](C)C(=O)N[C@@H]([C@@H](C)O)C(=O)N1)[C@@H](C)O)C(C)C)C(=O)N[C@@H](CC(N)=O)C(=O)N[C@@H](CCC(N)=O)C(=O)N[C@@H](Cc1ccccc1)C(=O)N[C@H](C(=O)N[C@@H](CC(=O)O)C(=O)N[C@@H](CCCCN)C(=O)N[C@@H](CC(=O)O)C(=O)N[C@@H](CCCCN)C(=O)N[C@@H](CC(=O)O)C(=O)N1CCC[C@H]1C(=O)N[C@H](C(=O)N[C@@H](C)C(=O)N1CCC[C@H]1C(=O)N1CCC[C@H]1C(=O)N[C@H](C(=O)N[C@@H](CC(N)=O)C(=O)N[C@H](C(=O)NCC(=O)N[C@@H](CO)C(=O)N[C@@H](CC(N)=O)C(=O)NCC(=O)N1C[C@H](O)C[C@H]1C(N)=O)C(C)C)[C@@H](C)O)C(C)C)[C@@H](C)O [compound 137] ({C20 diacid-γGlu}-KCNTATCTVARLAHQINQFTDKDKDPVAPPTNVGSNG[Hyp]-NH2; disulfide 2-7) | > 5000 nM | 0.034 nM |
| CC[C@H](C)[C@H](NC(=O)[C@H](C)NC(=O)CNC(=O)[C@H](Cc1ccccc1)NC(=O)[C@H](CC(N)=O)NC(=O)[C@H](CC(N)=O)NC(=O)[C@H](CO)NC(=O)[C@H](CO)NC(=O)[C@H](Cc1c[nH]cn1)NC(=O)[C@@H](NC(=O)[C@H](CC(C)C)NC(=O)[C@H](Cc1ccccc1)NC(=O)[C@H](CC(N)=O)NC(=O)[C@H](C)NC(=O)[C@H](CC(C)C)NC(=O)[C@H](CCCNC(=N)N)NC(=O)[C@H](CCC(N)=O)NC(=O)[C@@H](NC(=O)[C@H](C)NC(=O)[C@@H]1CSSC[C@H](NC(=O)[C@@H](N)CCCCN)C(=O)N[C@@H](CC(N)=O)C(=O)N[C@@H]([C@@H](C)O)C(=O)N[C@@H](C)C(=O)N[C@@H]([C@@H](C)O)C(=O)N1)[C@@H](C)O)C(C)C)C(=O)N[C@@H](CC(C)C)C(=O)N[C@@H](CO)C(=O)N[C@@H](CO)C(=O)N[C@H](C(=O)N[C@@H](CCCCN)C(=O)N[C@H](C(=O)NCC(=O)N[C@@H](CO)C(=O)N[C@@H](CC(N)=O)C(=O)NCC(=O)N[C@@H](Cc1ccc(O)cc1)C(N)=O)[C@@H](C)CC)[C@@H](C)O [compound 148] (H-KCNTATCATQRLANFLVHSSNNFGAILSSTKIGSNGY-NH2; disulfide 2-7; N-terminus assumed) | > 5000 nM | 0.04 nM |
| CC[C@H](C)[C@H](NC(=O)[C@H](CCC(N)=O)NC(=O)[C@H](Cc1c[nH]cn1)NC(=O)[C@H](C)NC(=O)[C@H](CC(C)C)NC(=O)[C@H](CCCNC(=N)N)NC(=O)[C@H](CC(=O)O)NC(=O)[C@@H](NC(=O)[C@@H](NC(=O)[C@@H]1CSSC[C@H](NC(=O)[C@H](CCCCN)NC(=O)CC[C@H](NC(=O)CCCCCCCCCCCCCCCCCCC(=O)O)C(=O)O)C(=O)N[C@@H](CC(N)=O)C(=O)N[C@@H]([C@@H](C)O)C(=O)N[C@@H](C)C(=O)N[C@@H]([C@@H](C)O)C(=O)N1)[C@@H](C)O)C(C)C)C(=O)N[C@@H](C)C(=O)N[C@@H](CCC(N)=O)C(=O)N[C@@H](Cc1ccccc1)C(=O)N[C@H](C(=O)N[C@@H](CC(=O)O)C(=O)N[C@@H](CCCCN)C(=O)N[C@@H](CC(=O)O)C(=O)N[C@@H](CCCCN)C(=O)N[C@@H](CC(=O)O)C(=O)N1CCC[C@H]1C(=O)N[C@H](C(=O)N[C@@H](C)C(=O)N1CCC[C@H]1C(=O)N1CCC[C@H]1C(=O)N[C@H](C(=O)N[C@@H](CC(N)=O)C(=O)N[C@H](C(=O)NCC(=O)N[C@@H](CO)C(=O)N[C@@H](CC(N)=O)C(=O)NCC(=O)N1C[C@H](O)C[C@H]1C(N)=O)C(C)C)[C@@H](C)O)C(C)C)[C@@H](C)O [compound 130] ({C20 diacid-γGlu}-KCNTATCTVDRLAHQIAQFTDKDKDPVAPPTNVGSNG[Hyp]-NH2; disulfide 2-7) | > 5000 nM | 0.03 nM |
| CC[C@H](C)[C@H](NC(=O)[C@H](C)NC(=O)CNC(=O)[C@H](Cc1ccccc1)NC(=O)[C@H](CC(N)=O)NC(=O)[C@H](CC(N)=O)NC(=O)[C@H](CO)NC(=O)[C@H](CO)NC(=O)[C@H](Cc1c[nH]cn1)NC(=O)[C@@H](NC(=O)[C@H](CC(C)C)NC(=O)[C@H](Cc1ccccc1)NC(=O)[C@H](CC(N)=O)NC(=O)[C@H](C)NC(=O)[C@H](CC(C)C)NC(=O)[C@H](CCCNC(=N)N)NC(=O)[C@H](CCC(N)=O)NC(=O)[C@@H](NC(=O)[C@H](C)NC(=O)[C@@H]1CSSC[C@H](NC(=O)[C@@H](N)CCCCN)C(=O)N[C@@H](CC(N)=O)C(=O)N[C@@H]([C@@H](C)O)C(=O)N[C@@H](C)C(=O)N[C@@H]([C@@H](C)O)C(=O)N1)[C@@H](C)O)C(C)C)C(=O)N[C@@H](CC(C)C)C(=O)N1CCC[C@H]1C(=O)N[C@@H](CO)C(=O)N[C@H](C(=O)N[C@@H](CCCCN)C(=O)N[C@H](C(=O)NCC(=O)N1CCC[C@H]1C(=O)N[C@@H](CC(N)=O)C(=O)NCC(=O)N[C@@H](Cc1ccc(O)cc1)C(N)=O)C(C)C)[C@@H](C)O [compound 149] (H-KCNTATCATQRLANFLVHSSNNFGAILPSTKVGPNGY-NH2; disulfide 2-7; N-terminus assumed) | > 5000 nM | 0.04 nM |
